Counter-ions that a name gives are not always drawn. Like-named read-outs stand apart in the source and are kept apart here.
How the values were obtained:
[1] = Log D distribution coefficient (PBS buffer/octanol); format: physicochemical
Protocol: Compound 1 has a Log D distribution coefficient at pH 7.2 of −0.07 (3 mL PBS Buffer: 1 mL Octanol) and −0.39 (2 mL PBS Buffer: 2 mL Octanol), where PBS is phosphate buffer solution.

[2] = Rat single dose metabolism/excretion study (urine and feces)
[3] = Rat 28-day GLP repeat dose PO study (toxicokinetics); format: in vivo
Protocol: The vehicle was 0.5% HPMC. There were 15 rats/sex in the control and high dose groups (5/sex for a 14-day recovery period) while the low and mid doses consisted of 10 rats/sex. Satellite groups of rats/sex/group for toxicokinetics were included.
Rats in Group 1 (Vehicle Control) were bled once at approximately 1 hour post-dose on those days.

[4] = female, rat, in vivo, po, 50 mg/kg, Day 1, F, 50 mg/kg PO
[5] = female, rat, in vivo, po, 500 mg/kg, Day 14, F, 500 mg/kg PO
[6] = female, rat, in vivo, po, 500 mg/kg, Day 28, F, 500 mg/kg PO
[7] = female, rat, in vivo, po, 1000 mg/kg, Day 1, F, 1000 mg/kg PO
[8] = female, rat, in vivo, po, 1000 mg/kg, Day 14, F, 1000 mg/kg PO
[9] = female, rat, in vivo, po, 1000 mg/kg, Day 28, F, 1000 mg/kg PO
[10] = female, rat, in vivo, po, 2000 mg/kg, Day 1, F, 2000 mg/kg PO
[11] = female, rat, in vivo, po, 2000 mg/kg, Day 14, F, 2000 mg/kg PO
[12] = female, rat, in vivo, po, 2000 mg/kg, Day 28, F, 2000 mg/kg PO

## CC1(C)SC(Nc2ccccc2O)=N[C@@H]1C(=O)O [Compound 1, (R)-2-(2-hydroxyphenylamino)-5,5-dimethyl-4,5-dihydrothiazole-4-carboxylic acid mono-hydrochloride]
[1]; pH 7.2, pH 7.2, 2 mL PBS Buffer: 2 mL Octanol
  logD: -0.39
[1]; pH 7.2, pH 7.2, 3 mL PBS Buffer: 1 mL Octanol
  logD: -0.07
[2]
  administered compound recovered unchanged: 5-15%
[3]; 28-day pivotal rat study, at some doses
  Cmax: over 100 μg/mL
[3]; 28-day study, rat
  Tmax: ≤ 1 h
[3]; all sexes, days, dose levels
  overall mean t1/2: 4.24 h
[3]; both sexes, rat, in vivo, po
  Tmax: 0.5 to 2 h
  half-life: 3 to 8 h
[3]; both sexes, rat, in vivo, po, Days 1, 14 and 28, 500 to 2000 mg/kg PO, read-out: median tmax
  Tmax: 1 h
[3]; both sexes, rat, in vivo, po, Days 14 and 28, all dose levels and sexes, read-out: overall median tmax
  Tmax: 1 h
[3]; both, rat, in vivo
  overall mean V/F: 12.5 L/kg
[3]; both, rat, in vivo, po
  overall mean CL/F: 35.2 mL/min/kg
[3]; [4]
  AUC: 298 µg·h/mL
  AUC(0-inf): 299 µg·h/mL
[3]; female, rat, in vivo, po, 50 mg/kg, Day 1, F, 50 mg/kg PO, read-out: CL/F (CLz/F) (converted)
  CL/F: 27.8 mL/min/kg
[3]; female, rat, in vivo, po, 50 mg/kg, Day 1, F, 50 mg/kg PO, read-out: Cmax
  Cmax: 74.8 µg/mL
[3]; female, rat, in vivo, po, 50 mg/kg, Day 1, F, 50 mg/kg PO, read-out: V/F (Vz/F)
  Vd/F: 8.1 L/kg
[3]; female, rat, in vivo, po, 50 mg/kg, Day 1, F, 50 mg/kg PO, read-out: t1/2 (converted)
  half-life: 3.36 h
[3]; [5]
  AUC: 223 µg·h/mL
  AUC(0-inf): 225 µg·h/mL
[3]; female, rat, in vivo, po, 500 mg/kg, Day 14, F, 500 mg/kg PO, read-out: CL/F (CLss/F) (converted)
  CL/F: 37.5 mL/min/kg
[3]; female, rat, in vivo, po, 500 mg/kg, Day 14, F, 500 mg/kg PO, read-out: Cmax
  Cmax: 75 µg/mL
[3]; female, rat, in vivo, po, 500 mg/kg, Day 14, F, 500 mg/kg PO, read-out: V/F (Vss/F)
  Vd/F: 13.6 L/kg
[3]; female, rat, in vivo, po, 500 mg/kg, Day 14, F, 500 mg/kg PO, read-out: t1/2 (converted)
  half-life: 4.2 h
[3]; female, rat, in vivo, po, 500 mg/kg, Day 14, F, 500 mg/kg PO, read-out: tmax
  Tmax: 1 h
[3]; [6]
  AUC: 297 µg·h/mL
  AUC(0-inf): 303 µg·h/mL
[3]; female, rat, in vivo, po, 500 mg/kg, Day 28, F, 500 mg/kg PO, read-out: CL/F (CLss/F) (converted)
  CL/F: 28 mL/min/kg
[3]; female, rat, in vivo, po, 500 mg/kg, Day 28, F, 500 mg/kg PO, read-out: Cmax
  Cmax: 86.4 µg/mL
[3]; female, rat, in vivo, po, 500 mg/kg, Day 28, F, 500 mg/kg PO, read-out: V/F (Vss/F)
  Vd/F: 11.2 L/kg
[3]; female, rat, in vivo, po, 500 mg/kg, Day 28, F, 500 mg/kg PO, read-out: t1/2 (converted)
  half-life: 4.62 h
[3]; female, rat, in vivo, po, 500 mg/kg, Day 28, F, 500 mg/kg PO, read-out: tmax
  Tmax: 0.5 h
[3]; [7]
  AUC: 788 µg·h/mL
  AUC(0-inf): 794 µg·h/mL
[3]; female, rat, in vivo, po, 1000 mg/kg, Day 1, F, 1000 mg/kg PO, read-out: CL/F (CLz/F) (converted)
  CL/F: 21 mL/min/kg
[3]; female, rat, in vivo, po, 1000 mg/kg, Day 1, F, 1000 mg/kg PO, read-out: Cmax
  Cmax: 108 µg/mL
[3]; female, rat, in vivo, po, 1000 mg/kg, Day 1, F, 1000 mg/kg PO, read-out: V/F (Vz/F)
  Vd/F: 6.15 L/kg
[3]; female, rat, in vivo, po, 1000 mg/kg, Day 1, F, 1000 mg/kg PO, read-out: t1/2 (converted)
  half-life: 3.39 h
[3]; [8]
  AUC: 430 µg·h/mL
  AUC(0-inf): 437 µg·h/mL
[3]; female, rat, in vivo, po, 1000 mg/kg, Day 14, F, 1000 mg/kg PO, read-out: CL/F (CLss/F) (converted)
  CL/F: 38.7 mL/min/kg
[3]; female, rat, in vivo, po, 1000 mg/kg, Day 14, F, 1000 mg/kg PO, read-out: Cmax
  Cmax: 96.3 µg/mL
[3]; female, rat, in vivo, po, 1000 mg/kg, Day 14, F, 1000 mg/kg PO, read-out: V/F (Vss/F)
  Vd/F: 14 L/kg
[3]; female, rat, in vivo, po, 1000 mg/kg, Day 14, F, 1000 mg/kg PO, read-out: t1/2 (converted)
  half-life: 4.19 h
[3]; [9]
  AUC: 736 µg·h/mL
  AUC(0-inf): 741 µg·h/mL
[3]; female, rat, in vivo, po, 1000 mg/kg, Day 28, F, 1000 mg/kg PO, read-out: CL/F (CLss/F) (converted)
  CL/F: 22.7 mL/min/kg
[3]; female, rat, in vivo, po, 1000 mg/kg, Day 28, F, 1000 mg/kg PO, read-out: Cmax
  Cmax: 128 µg/mL
[3]; female, rat, in vivo, po, 1000 mg/kg, Day 28, F, 1000 mg/kg PO, read-out: V/F (Vss/F)
  Vd/F: 6.26 L/kg
[3]; female, rat, in vivo, po, 1000 mg/kg, Day 28, F, 1000 mg/kg PO, read-out: t1/2 (converted)
  half-life: 3.2 h
[3]; female, rat, in vivo, po, 1000 mg/kg, Day 28, F, 1000 mg/kg PO, read-out: tmax
  Tmax: 1 h
[3]; [10]
  AUC: 1160 µg·h/mL
  AUC(0-inf): 1320 µg·h/mL
[3]; female, rat, in vivo, po, 2000 mg/kg, Day 1, F, 2000 mg/kg PO, read-out: CL/F (CLz/F) (converted)
  CL/F: 25.2 mL/min/kg
[3]; female, rat, in vivo, po, 2000 mg/kg, Day 1, F, 2000 mg/kg PO, read-out: Cmax
  Cmax: 118 µg/mL
[3]; female, rat, in vivo, po, 2000 mg/kg, Day 1, F, 2000 mg/kg PO, read-out: V/F (Vz/F)
  Vd/F: 17.6 L/kg
[3]; [11]
  AUC: 942 µg·h/mL
  AUC(0-inf): 952 µg·h/mL
[3]; female, rat, in vivo, po, 2000 mg/kg, Day 14, F, 2000 mg/kg PO, read-out: CL/F (CLss/F) (converted)
  CL/F: 35.3 mL/min/kg
[3]; female, rat, in vivo, po, 2000 mg/kg, Day 14, F, 2000 mg/kg PO, read-out: Cmax
  Cmax: 127 µg/mL
[3]; female, rat, in vivo, po, 2000 mg/kg, Day 14, F, 2000 mg/kg PO, read-out: V/F (Vss/F)
  Vd/F: 10.9 L/kg
[3]; female, rat, in vivo, po, 2000 mg/kg, Day 14, F, 2000 mg/kg PO, read-out: t1/2 (converted)
  half-life: 3.56 h
[3]; female, rat, in vivo, po, 2000 mg/kg, Day 14, F, 2000 mg/kg PO, read-out: tmax
  Tmax: 1 h
[3]; [12]
  AUC: 1300 µg·h/mL
  AUC(0-inf): 1330 µg·h/mL
[3]; female, rat, in vivo, po, 2000 mg/kg, Day 28, F, 2000 mg/kg PO, read-out: CL/F (CLss/F) (converted)
  CL/F: 25.5 mL/min/kg
[3]; female, rat, in vivo, po, 2000 mg/kg, Day 28, F, 2000 mg/kg PO, read-out: Cmax
  Cmax: 139 µg/mL
[3]; female, rat, in vivo, po, 2000 mg/kg, Day 28, F, 2000 mg/kg PO, read-out: V/F (Vss/F)
  Vd/F: 8.7 L/kg
